Reference: patent publication US11510899B2, “RTX toxin production inhibitor and composition for treating symptom of vibrio infection by using same” (priority 2018, dated 2022)

Assays:
Format in all cases: cell-based
Vibrio vulnificus [1] = test: Growth of Vibrio vulnificus; conditions: 20-500 μM CM2660
Protocol: (§1) While culturing at 30° C., the growth of the reporter strain and the degree of bioluminescence thereof were measured in the same manner as in Example 1, and the RLU was calculated. The RLU of the DMSO-treated control group was expressed as 100% HlyU activity. HlyU activity was plotted according to the concentration of the derivative compound, and EC50 (half maximal effective concentration) was calculated using GraphPad Prism 7.0 (GraphPad Software, San Diego, Calif.) (FIG. 6, Table 2).
Therefore, Vibrio vulnificus was treated with various concentrations of CM2660, and the growth of Vibrio vulnificus was observed (FIG. 20).

HlyU [2] = target: T1, HlyU (Vibrio vulnificus, UniProt A0A3Q0L222); test: High-throughput screening with E. coli reporter strain (pKK1306 + pZW1608 lux reporter)
T1 sequence (A0A3Q0L222 1-98): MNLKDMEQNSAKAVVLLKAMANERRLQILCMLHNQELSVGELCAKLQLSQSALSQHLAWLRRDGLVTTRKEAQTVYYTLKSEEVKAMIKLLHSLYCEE
Text: Meanwhile, to perform E. coli reporter strain construction and high-throughput screening, a pKK1306 plasmid cloned to induce wild-type hlyU genes by arabinose was constructed. The reporter plasmid is pZW1608, in which the promoter of the VVMO6_00539 gene, expression of which is directly repressed by HlyU, is cloned in front of the bioluminescence operon (lux operon). These two plasmids were simultaneously transformed into E. coli DH5 to construct an E. coli reporter strain (FIG. 1). FIG. 1 is a schematic diagram illustrating the strategy used to screen selective inhibitors of HlyU.
For the screening, approximately 8400 low-molecular-weight compounds were obtained from Korea Compound Bank and used in this experiment. […] When the absorbance at 600 nm (A600) of the culture solution, which was cultured at 37° C., reached 0.5, 100 μl of the culture solution was transferred to a 96-well black plate. […] While culturing at 37° C., the growth and bioluminescence of the reporter strain were measured using an Infinite™ M200 microplate reader (Tecan, Mannedorf, Switzerland). The relative luminescence unit (RLU) was calculated through normalization by division of the measured luminescence value by the absorbance. RLU=luminescence/absorbance [Equation 1] […]

rtxA, vvhA and plpA = test: qRT-PCR of virulence genes activated by HlyU in Vibrio vulnificus; conditions: 20 μM
Protocol: The effect of CM2660 on the expression of rtxA, vvhA and plpA, the virulence genes of Vibrio vulnificus activated by HlyU, was investigated. […] Then, the culture solution were sampled at the time at which the expression of each gene was mainly controlled by HlyU (A600=0.5 for rtxA and vvhA, and A600=1.0 for plpA), RNA was purified, and quantitative real-time polymerase chain reaction (quantitative Real-Time (qRT)-PCR) was performed (FIGS. 10 to 12).

HlyU [3] = target: T1, HlyU; test: Vibrio reporter strain, pKK1305 (PrtxA-lux, activated by HlyU) in wild-type V. vulnificus; conditions: Compound Group I; HlyU activity (RLU, DMSO = 100%), 30° C.
Protocol: Meanwhile, verification experiments using the Vibrio reporter strain were also conducted so as to exclude false positive results. It was identified that the effect of the compound was not limited only to E. coli using Vibrio vulnificus, each having the reporter plasmid (pZW1608) inhibited by HlyU, which was used for the E. coli reporter strain, and the plasmid (pKK1305) in which the promoter of the rtxA gene activated by HlyU is cloned in front of the bioluminescence operon.
The constructed wild-type Vibrio reporter strain was treated with sample compounds and cultured at 30° C., and cell growth and luminescence were measured in the same manner as the E. coli strain screening (FIG. 3 and FIG. 4).
In order to identify whether or not a specific structure of CM2660 has a significant effect on HlyU inhibition, the effect of HlyU inhibition by the compound CM2660 and derivatives thereof, “Compound Group I” (FIG. 5) was verified. For the purpose, the pKK1305 plasmid prepared in Example 1 was conjugated to the wild-type Vibrio vulnificus, and the Vibrio reporter strain (pKK1305 in wild-type V. vulnificus) thus produced was treated with various concentrations of the derivative compounds.
as §1

HlyU [4] = test: Amount of HlyU protein in cells of Vibrio vulnificus; conditions: various concentrations, added at A600=0.2, harvested at A600=0.5, vs 2% DMSO
Protocol: In order to determine the mechanism by which the HlyU inhibitor CM2660 inhibited the activity of HlyU, Vibrio vulnificus was cultured at 30° C. and treated with various concentrations of CM2660 at A600=0.2. […] Then, the cell solution was centrifuged at A600=0.5, indicating the time when the intracellular amount of HlyU was maximized, and only the cell portion (pellet) was recovered. The recovered cells were chemically lysed to determine the amount of HlyU in each sample (FIG. 9).

[5] = test system: exsA, va11668, vopQ, vopS and vopR; test: qRT-PCR of exsA and T3SS genes in Vibrio alginolyticus; conditions: 20 μM, A600=0.5, vs 2% DMSO
Protocol: Vibrio alginolyticus is also a pathogenic Vibrio bacterium that has T3SS and is cytotoxic, similar to Vibrio parahaemolyticus. In order to determine the toxin inhibition effect of CM2660 in Vibrio alginolyticus, Vibrio alginolyticus was cultured in TSB (tryptic soy broth) medium supplemented with 1% NaCl.

Vibrio vulnificus [6] = test: Hemolytic activity of Vibrio vulnificus against erythrocytes; conditions: culture supernatant at A600=1.0, different concentrations
Protocol: Meanwhile, the effect of CM2660 on the hemolytic activity against erythrocytes of Vibrio vulnificus was investigated. For this purpose, Vibrio vulnificus was cultured at 30° C. and treated with CM2660 at different concentrations at A600=0.2. […] The filtered supernatant was concentrated and mixed with erythrocytes diluted to 10% in PBS and cultured at 37° C. Hemolytic activity against erythrocytes was quantified by measuring absorbance at 540 nm (A540). A sample completely dissolved by treatment with 5% Triton X-100 instead of the supernatant was used as a positive control group and a sample using LBS medium was used as a negative control group.
Hemolytic activity was calculated using the following Equation 2, and is shown as a percentage (%) in FIG. 14.

O=C(C#Cc1ccccc1)Nc1scc2c1c(=O)oc1ccccc12 [CM2660, N-(4-oxo-4H-thieno[3,4-c]chromen-3-yl)-3-phenylprop-2-ynamide]
in-vitro growth of Vibrio vulnificus (Vibrio vulnificus [1]): no significant effect | bioluminescence of E. coli reporter strains (HlyU [2]; 20 μM compound, 0.0002% arabinose, vs DMSO): significantly increased | HlyU inhibitory effect among the seven screened compounds (HlyU [2]; Example 1, E. coli and Vibrio reporter strains): best effect | rtxA mRNA level (rtxA, vvhA and plpA; A600=0.5, vs 2% DMSO): significantly reduced | vvhA mRNA level (rtxA, vvhA and plpA; A600=0.5, vs 2% DMSO): significantly reduced | plpA mRNA level (rtxA, vvhA and plpA; A600=1.0, vs 2% DMSO): significantly reduced | EC50 (HlyU [3]): 30.9 µM | amount of HlyU in the cells (HlyU [4]): no significant difference | exsA mRNA level [5]: significantly reduced | va11668 mRNA level [5]: significantly reduced | vopQ mRNA level [5]: significantly reduced | vopR mRNA level [5]: significantly reduced | vopS mRNA level [5]: significantly reduced | hemolytic activity against erythrocytes (Vibrio vulnificus [6]): concentration-dependent decrease
